Reference: US12448372B2, “Class of triaromatic compounds targeting bifunctional phosphorylation site of STAT3 and applications thereof” (SHANGHAI YUYAO BIOTECH LTD., priority 2019, dated 2025)

Legend:
[1] = system: Capan-2; experiment: Cell proliferation by MTS method, Capan-2; format: cell-based; conditions: Homo sapiens; Table 1, Capan-2; read-out: Tumour cell proliferative activity/IC50(nM) Pancreatic Cancer Capan-2
Excerpt: (§1) (2) Detection of Cell Proliferation by MTS Method
(§2) The MTS assay is a method for indirectly determining the number of living cells via colourimetric method. MTS is a newly synthesised tetrazole compound that reflects cell viability, which can be reduced by succinate dehydrogenase in the mitochondria of living cells to an orange-coloured formazan with an absorbance of the reduced product measured at 490 nm being in proportion to the number of living cells, thus reflecting the cell viability. This assay can be used to evaluate the effect of the compound on the proliferation of pancreatic cancer cells, thereby determining the inhibitory effect of the compound on the proliferation of pancreatic cancer cells and to calculate the IC^50. Each cells were inoculated uniformly into a 96-well plate at a density of 1-20×10^3 cells/well, 100 μL per well, and placed in a constant temperature incubator until the cells adhered to the wall. The control group was added with the corresponding medium and the experimental groups were given different concentrations of the compound prepared by the examples of the present invention, and the cells were taken out 24-96 h after administration for observing the cell state under a microscope. Under light-proof conditions, MTS was added and well mixed, the mixture was placed in a constant temperature incubator at 37° C., and the light absorption value were measured using an enzyme marker at 490 nm and the experiment was repeated for three times, IC50 was calculated with GraphPad5 Prism software.

[2] = system: Huh7; experiment: Cell proliferation by MTS method, Huh7; format: cell-based; conditions: Homo sapiens, Huh-7; Table 1, Huh7; read-out: Tumour cell proliferative activity/IC50(nM) Liver Cancer Huh7
Excerpt: as §1, §2

[3] = system: HCC827; experiment: Cell proliferation by MTS method, HCC827; format: cell-based; conditions: Homo sapiens; Table 1, HCC827; read-out: Tumour cell proliferative activity/IC50(nM) Lung Cancer HCC827
Excerpt: as §1, §2

[4] = system: MKN45; experiment: Cell proliferation by MTS method, MKN45; format: cell-based; conditions: Homo sapiens, MKN-45; Table 1, MKN45; read-out: Tumour cell proliferative activity/IC50(nM) gastric Cancer MKN45
Excerpt: as §1, §2

[5] = molecular target: STAT3 protein (Homo sapiens, UniProt P40763); experiment: Binding activity to STAT3 protein by microscale thermophoresis (MST); conditions: purified STAT3 recombinant protein
Sequence of STAT3 protein (P40763 whole entry): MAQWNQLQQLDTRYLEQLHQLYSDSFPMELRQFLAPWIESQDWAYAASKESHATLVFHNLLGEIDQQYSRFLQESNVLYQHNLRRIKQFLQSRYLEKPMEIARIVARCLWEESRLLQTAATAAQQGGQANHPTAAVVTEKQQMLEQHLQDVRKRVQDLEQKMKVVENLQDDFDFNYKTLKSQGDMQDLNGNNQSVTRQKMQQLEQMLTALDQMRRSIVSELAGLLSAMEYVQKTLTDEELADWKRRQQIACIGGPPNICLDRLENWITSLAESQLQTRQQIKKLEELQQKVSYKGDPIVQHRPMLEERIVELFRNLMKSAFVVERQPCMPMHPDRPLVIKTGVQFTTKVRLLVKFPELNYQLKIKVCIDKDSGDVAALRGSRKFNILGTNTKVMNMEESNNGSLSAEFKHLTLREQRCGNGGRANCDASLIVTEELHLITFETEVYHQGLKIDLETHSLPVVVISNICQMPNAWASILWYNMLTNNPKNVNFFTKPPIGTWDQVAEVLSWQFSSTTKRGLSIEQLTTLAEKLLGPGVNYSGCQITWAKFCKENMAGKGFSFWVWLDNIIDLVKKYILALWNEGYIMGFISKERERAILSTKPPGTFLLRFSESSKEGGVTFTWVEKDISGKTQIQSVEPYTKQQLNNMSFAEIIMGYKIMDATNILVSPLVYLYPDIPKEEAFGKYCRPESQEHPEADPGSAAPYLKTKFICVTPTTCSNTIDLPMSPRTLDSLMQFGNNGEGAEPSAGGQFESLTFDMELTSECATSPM
Excerpt: (1) Determination of Binding Activities of Compounds to STAT3 Protein by Microscale Thermophoresis (MST) Method
The microscale thermophoresis (MST) technique is a simple, rapid, and accurate method for quantifying biomolecular interactions. It can measure the movement of molecules in a microscopic temperature gradient field, as well as detect changes of molecular hydration shell, charge and size. When the Nanotemper microscale thermophoresis instrument locally heated by a infrared laser, molecules will move in a directional manner, then the molecular distribution ratio in the temperature gradient field are analyzed by a fluorescence to detect whether a small molecule compound binds to a target protein. The experimental operation is as follows: firstly, compounds to be tested are diluted in a gradient using MST test buffer, total 16 concentrations being configured; subsequently, the purified STAT3 recombinant protein is labeled using the HIS tag labeling kit, and the final concentration of the labeled protein is 100-200 nM; the labeled STAT3 proteins are well mixed with the diluted compounds and incubated and protected from light for 30 minutes; finally the samples were loaded by capillary tube and detected on the instrument. The binding constants (K^D) of small molecules to STAT3 protein were analyzed by Mo. analysis software.

| IC50 [2] [nM] | IC50 [3] [nM] | IC50 [4] [nM] | Kd [5] [nM] | Structure (SMILES) | IC50 [1] [nM] |
| --- | --- | --- | --- | --- | --- |
| < 10 | < 10 | < 10 | < 10 | COc1ccccc1-c1noc(-c2cnc(Oc3ccc4cc(C(=O)N5CCN(Cc6ccc(OCC(F)(F)F)cc6)CC5)n(C)c4c3)cn2)n1 [Example 9, (6-((5-(3-(2-methoxyphenyl)-1,2,4-oxadiazol-5-yl)pyrazin-2-yl)oxy)-1-methyl-1H-indol-2-yl) (4-(4-(2,2,2-trifluoroethoxy)benzyl)piperazin-1-yl)methanone] | < 10 |
| < 10 | < 10 | < 10 | < 10 | COc1cccc(-c2noc(-c3cnc(Oc4ccc5cc(C(=O)N6CCN(Cc7ccc(OCC(F)(F)F)cc7)CC6)n(C)c5c4)cn3)n2)c1 [Example 10, (6-((5-(3-(3-methoxyphenyl)-1,2,4-oxadiazol-5-yl)pyrazin-2-yl)oxy)-1-methyl-1H-indol-2-yl) (4-(4-(2,2,2-trifluoroethoxy)benzyl)piperazin-1-yl)methanone] | < 10 |
| < 10 | < 10 | < 10 | < 10 | Cn1c(C(=O)N2CCN(Cc3ccc(OCC(F)(F)F)cc3)CC2)cc2ccc(Oc3cnc(-c4nc(-c5ccc(Cl)cc5)no4)cn3)cc21 [Example 11, (6-((5-(3-(4-chlorophenyl)-1,2,4-oxadiazol-5-yl)pyrazin-2-yl)oxy)-1-methyl-1H-indol-2-yl) (4-(4-(2,2,2-trifluoroethoxy)benzyl)piperazin-1-yl)methanone] | < 10 |
| < 10 | < 10 | < 10 | < 10 | Cn1c(C(=O)N2CCN(Cc3ccc(OCC(F)(F)F)cc3)CC2)cc2ccc(Oc3cnc(-c4nc(-c5ccc(Br)cc5)no4)cn3)cc21 [Example 12, (6-((5-(3-(4-bromophenyl)-1,2,4-oxadiazol-5-yl)pyrazin-2-yl)oxy)-1-methyl-1H-indol-2-yl) (4-(4-(2,2,2-trifluoroethoxy)benzyl)piperazin-1-yl)methanone] | < 10 |
| < 10 | < 10 | < 10 | < 10 | Cn1c(C(=O)N2CCN(Cc3ccc(OCC(F)(F)F)cc3)CC2)cc2ccc(Oc3cnc(-c4nc(-c5ccc(OC(F)(F)F)cc5)no4)cn3)cc21 [Example 13, (6-((5-(3-(4-(trifluoromethoxy)phenyl)-1,2,4-oxadiazol-5-yl)pyrazin-2-yl)oxy)-1-methyl-1H-indol-2-yl) (4-(4-(2,2,2-trifluoroethoxy)benzyl)piperazin-1-yl)methanone] | < 10 |
| < 100 | < 100 | < 100 | < 100 | O=C(c1cc2ccc(Oc3cnc(-c4nc(-c5ccc(C(F)(F)F)cc5)no4)cn3)cc2[nH]1)N1CCN(Cc2ccc(OCC(F)(F)F)cc2)CC1 [Example 14, (6-((5-(3-(4-(trifluoromethyl)phenyl)-1,2,4-oxadiazol-5-yl)pyrazin-2-yl)oxy)-1H-indol-2-yl) (4-(4-(2,2,2-trifluoroethoxy)benzyl)piperazin-1-yl)methanone] | < 100 |
| < 10 | < 10 | < 10 | < 10 | CCn1c(C(=O)N2CCN(Cc3ccc(OCC(F)(F)F)cc3)CC2)cc2ccc(Oc3cnc(-c4nc(-c5ccc(C(F)(F)F)cc5)no4)cn3)cc21 [Example 15, (1-ethyl-6-((5-(3-(4-(trifluoromethyl)phenyl)-1,2,4-oxadiazol-5-yl)pyrazin-2-yl)oxy)-1H-indol-2-yl)(4-(4-(2,2,2-trifluoromethoxy)benzyl)piperazin-1-yl)methanone] | < 10 |
| < 100 | < 100 | < 100 | < 100 | CCCn1c(C(=O)N2CCN(Cc3ccc(OCC(F)(F)F)cc3)CC2)cc2ccc(Oc3cnc(-c4nc(-c5ccc(C(F)(F)F)cc5)no4)cn3)cc21 [Example 16, (1-propyl-6-((5-(3-(4-(trifluoromethyl)phenyl)-1,2,4-oxadiazol-5-yl)pyrazin-2-yl)oxy)-1H-indol-2-yl)(4-(4-(2,2,2-trifluoromethoxy)benzyl)piperazin-1-yl)methanone] | < 100 |
| < 10 | < 10 | < 10 | < 10 | C=CCn1c(C(=O)N2CCN(Cc3ccc(OCC(F)(F)F)cc3)CC2)cc2ccc(Oc3cnc(-c4nc(-c5ccc(C(F)(F)F)cc5)no4)cn3)cc21 [Example 17, (1-allyl-6-((5-(3-(4-(trifluoromethyl)phenyl)-1,2,4-oxadiazol-5-yl)pyrazin-2-yl)oxy)-1H-indol-2-yl) (4-(4-(2,2,2-trifluoromethoxy)benzyl)piperazin-1-yl)methanone] | < 10 |
| < 100 | < 100 | < 100 | < 100 | COCCn1c(C(=O)N2CCN(Cc3ccc(OCC(F)(F)F)cc3)CC2)cc2ccc(Oc3cnc(-c4nc(-c5ccc(C(F)(F)F)cc5)no4)cn3)cc21 [Example 18, (1-(2-methoxyethyl)-6-((5-(3-(4-(trifluoromethyl)phenyl)-1,2,4-oxadiazol-5-yl)pyrazin-2-yl)oxy)-1H-indol-2-yl) (4-(4-(2,2,2-trifluoroethoxy)benzyl)piperazin-1-yl)methanone] | < 100 |
| < 10 | < 10 | < 10 | < 10 | CC(C)C(=O)n1c(C(=O)N2CCN(Cc3ccc(OCC(F)(F)F)cc3)CC2)cc2ccc(Oc3cnc(-c4nc(-c5ccc(C(F)(F)F)cc5)no4)cn3)cc21 [Example 19] | < 10 |
| < 1000 | < 1000 | < 1000 | < 1000 | COC(=O)Cn1c(C(=O)N2CCN(Cc3ccc(OCC(F)(F)F)cc3)CC2)cc2ccc(Oc3cnc(-c4nc(-c5ccc(C(F)(F)F)cc5)no4)cn3)cc21 [Example 20] | < 1000 |
| < 1000 | < 1000 | < 1000 | < 100 | CCOC(=O)Cn1c(C(=O)N2CCN(Cc3ccc(OCC(F)(F)F)cc3)CC2)cc2ccc(Oc3cnc(-c4nc(-c5ccc(C(F)(F)F)cc5)no4)cn3)cc21 [Example 21] | < 1000 |
| < 1000 | < 1000 | < 1000 | < 100 | O=C(c1cc2ccc(Oc3cnc(-c4nc(-c5ccc(C(F)(F)F)cc5)no4)cn3)cc2n1Cc1ccccc1)N1CCN(Cc2ccc(OCC(F)(F)F)cc2)CC1 [Example 22] | < 1000 |
| < 1000 | < 1000 | < 1000 | < 100 | Cn1c(C(=O)N2CCN(Cc3ccccc3)CC2)cc2ccc(Oc3cnc(-c4nc(-c5ccc(C(F)(F)F)cc5)no4)cn3)cc21 [Example 23, (4-benzylpiperazin-1-yl)(1-methyl-6-((5-(3-(4-(trifluoromethyl)phenyl)-1,2,4-oxadiazol-5-yl)pyrazin-2-yl)oxy)-1H-indol-2-yl)methanone] | < 1000 |
| < 1000 | < 1000 | < 1000 | < 100 | Cc1cccc(CN2CCN(C(=O)c3cc4ccc(Oc5cnc(-c6nc(-c7ccc(C(F)(F)F)cc7)no6)cn5)cc4n3C)CC2)c1 [Example 24, (1-methyl-6-((5-(3-(4-(trifluoromethyl)phenyl)-1,2,4-oxadiazol-5-yl)pyrazin-2-yl)oxy)-1H-indol-2-yl) (4-(3-methylbenzyl)piperazin-1-yl)methanone] | < 1000 |
| < 100 | < 100 | < 100 | < 100 | Cc1ccc(CN2CCN(C(=O)c3cc4ccc(Oc5cnc(-c6nc(-c7ccc(C(F)(F)F)cc7)no6)cn5)cc4n3C)CC2)cc1 [Example 25, (1-methyl-6-((5-(3-(4-(trifluoromethyl)phenyl)-1,2,4-oxadiazol-5-yl)pyrazin-2-yl)oxy)-1H-indol-2-yl) (4-(4-methylbenzyl)piperazin-1-yl)methanone] | < 100 |
